From patent US7456183B2, “Guanidino compounds” (Novartis Vaccines and Diagnostics, Inc., priority 2001, dated 2008)

Target: MC4-R (Homo sapiens, UniProt P32245)
Experiment: cAMP Scintillation Proximity Assay in cells expressing MC4-R
Type: cell-based
Conditions: intercellular cAMP measured with SPA kit, read-out: in vitro potency (as measured by EC50 value)
Description: EC50 values of test compounds were determined by treating cells expressing MC4-R with test compound and lysing the cells and measuring intercellular cAMP concentration with an Amersham-Pharmacia RPA-559 cAMP Scintillation Proximity Assay (SPA) kit. The following compounds were synthesized and tested according to this assay. The following compounds are merely illustrative and should not be construed as limiting of the instant invention.

Sequence of MC4-R (P32245 whole entry, species assumed): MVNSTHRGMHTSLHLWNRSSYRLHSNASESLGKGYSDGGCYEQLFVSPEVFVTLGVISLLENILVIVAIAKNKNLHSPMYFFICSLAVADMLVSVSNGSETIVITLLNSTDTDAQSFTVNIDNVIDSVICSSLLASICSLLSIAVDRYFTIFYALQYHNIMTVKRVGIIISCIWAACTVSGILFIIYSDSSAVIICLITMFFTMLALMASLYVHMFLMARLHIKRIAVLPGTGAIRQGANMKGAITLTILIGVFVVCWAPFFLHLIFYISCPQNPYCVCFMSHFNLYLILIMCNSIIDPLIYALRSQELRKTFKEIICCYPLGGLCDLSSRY

EC50: < 3 µM
Structure (SMILES): C[C@@H]1[C@@H](N=C(Nc2ccc3c(c2)CCN(CCc2ccc(Cl)cc2Cl)C3=O)N2CCN[C@@H](C)C2)C[C@H]2C[C@@H]1C2(C)C [Example 22, (3S)—N-{2-[2-(2,4-dichlorophenyl)ethyl]-1-oxo-1,2,3,4-tetrahydroisoquinolin-6-yl}-3-methyl-N′-[(1S,2S,5R)-2,6,6-trimethylbicyclo[3.1.1]hept-3-yl]piperazine-1-carboximidamide]
